Experimental data published in ChEMBL document CHEMBL1201862, “PubChem BioAssay data set” (2004).
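Cultured in 96-well plates, cells were exposed to test compound for 48 hours across five concentrations. At the GI50, growth is halved.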 Active and inactive are the calls of the source. Rule as the data show it: active = GI50 up to about 1.1 µM and inactive = higher.

Assays:
Assay in all cases: NCI-60 cell line screen, 48 h
MCF7 = system: MCF7
SK-MEL-28 = system: SK-MEL-28
SNB-75 = system: SNB-75
Malme-3M = system: Malme-3M
OVCAR-3 = system: OVCAR-3
OVCAR-4 = system: OVCAR-4
SN12C = system: SN12C
TK-10 = system: TK-10
RXF 393 = system: RXF 393
MDA-N = system: MDA-N
HOP-92 = system: HOP-92
ACHN = system: ACHN
M14 = system: M14
NCI-H460 = system: NCI-H460
HCC 2998 = system: HCC 2998
SF-539 = system: SF-539
SF-295 = system: SF-295
K562 = system: K562
UACC-257 = system: UACC-257
HCT-116 = system: HCT-116
NCI/ADR-RES = system: NCI/ADR-RES
HCT-15 = system: HCT-15
UO-31 = system: UO-31
786-0 = system: 786-0
MOLT-4 = system: MOLT-4
A498 = system: A498
MDA-MB-231 = system: MDA-MB-231
OVCAR-5 = system: OVCAR-5
NCI-H522 = system: NCI-H522
OVCAR-8 = system: OVCAR-8
CAKI-1 = system: CAKI-1
MDA-MB-435 = system: MDA-MB-435
SK-MEL-2 = system: SK-MEL-2
IGROV-1 = system: IGROV-1
A549 = system: A549
HOP-62 = system: HOP-62
Hs-578T = system: Hs-578T
PC-3 = system: PC-3
SK-MEL-5 = system: SK-MEL-5
T47D = system: T47D
LOX IMVI = system: LOX IMVI
NCI-H23 = system: NCI-H23
RPMI-8226 = system: RPMI-8226
SK-OV-3 = system: SK-OV-3
UACC-62 = system: UACC-62
EKVX = system: EKVX
U-251 = system: U-251
HT-29 = system: HT-29
KM12 = system: KM12
SR = system: SR
NCI-H226 = system: NCI-H226
HL-60 = system: HL-60
SF-268 = system: SF-268
BT-549 = system: BT-549
SW-620 = system: SW-620
COLO 205 = system: COLO 205
CCRF-CEM = system: CCRF-CEM
DU-145 = system: DU-145
SNB-19 = system: SNB-19

Measured: GI50

COc1ccccc1NC(=O)C(=O)C(C#N)CC(C)(C)C=O (configuration not stated)
inactive: MCF7 > 100 µM | SK-MEL-28 > 100 µM | SNB-75 > 100 µM | Malme-3M > 100 µM | OVCAR-3 > 100 µM | OVCAR-4 > 100 µM | SN12C > 100 µM | TK-10 > 100 µM | RXF 393 > 100 µM | MDA-N > 100 µM | HOP-92 > 100 µM | ACHN > 100 µM | M14 > 100 µM | NCI-H460 > 100 µM | HCC 2998 > 100 µM | SF-539 > 100 µM | SF-295 > 100 µM | K562 > 100 µM | UACC-257 > 100 µM | HCT-116 > 100 µM | NCI/ADR-RES > 100 µM | UO-31 > 100 µM | 786-0 > 100 µM | MOLT-4 > 100 µM | A498 > 100 µM | MDA-MB-231 > 100 µM | OVCAR-5 > 100 µM | NCI-H522 > 100 µM | OVCAR-8 > 100 µM | CAKI-1 > 100 µM | MDA-MB-435 > 100 µM | SK-MEL-2 > 100 µM | IGROV-1 > 100 µM | A549 > 100 µM | HOP-62 > 100 µM | Hs-578T > 100 µM | PC-3 > 100 µM | SK-MEL-5 > 100 µM | T47D > 100 µM | LOX IMVI > 100 µM | NCI-H23 > 100 µM | RPMI-8226 > 100 µM | SK-OV-3 > 100 µM | UACC-62 > 100 µM | EKVX > 100 µM | U-251 > 100 µM | HT-29 > 100 µM | KM12 > 100 µM | SR > 100 µM | NCI-H226 > 100 µM | HL-60 > 100 µM | SF-268 > 100 µM | BT-549 > 100 µM | SW-620 > 100 µM
> 100 µM: HCT-15

COc1cccc(C[C@H]2COC(=O)[C@]2(O)Cc2cccc(OC)c2)c1
active: SF-268 < 0.01 µM
> 100 µM: HCT-15
inactive: SK-MEL-28 > 100 µM | SNB-75 > 100 µM | Malme-3M 60.5 µM | OVCAR-3 97.5 µM | OVCAR-4 90.4 µM | SN12C > 100 µM | TK-10 70.6 µM | COLO 205 > 100 µM | MDA-N > 100 µM | HOP-92 79.6 µM | ACHN > 100 µM | M14 > 100 µM | NCI-H460 48.2 µM | HCC 2998 70.8 µM | SF-539 > 100 µM | SF-295 83 µM | K562 > 100 µM | CCRF-CEM > 100 µM | UACC-257 > 100 µM | HCT-116 > 100 µM | NCI/ADR-RES 66.5 µM | UO-31 > 100 µM | 786-0 > 100 µM | MOLT-4 53.1 µM | A498 > 100 µM | MDA-MB-231 > 100 µM | OVCAR-5 > 100 µM | NCI-H522 55.7 µM | OVCAR-8 > 100 µM | CAKI-1 18.1 µM | MDA-MB-435 > 100 µM | SK-MEL-2 > 100 µM | IGROV-1 > 100 µM | A549 > 100 µM | HOP-62 > 100 µM | Hs-578T > 100 µM | PC-3 > 100 µM | SK-MEL-5 50.9 µM | T47D 18.1 µM | LOX IMVI > 100 µM | NCI-H23 > 100 µM | RPMI-8226 93.3 µM | SK-OV-3 > 100 µM | UACC-62 60.1 µM | EKVX 26.5 µM | U-251 > 100 µM | HT-29 > 100 µM | KM12 91.2 µM | SR > 100 µM | DU-145 > 100 µM | NCI-H226 > 100 µM | HL-60 72.6 µM | BT-549 > 100 µM | SNB-19 > 100 µM | SW-620 > 100 µM
